# Measurements from publication PMC5421785, “Citrullination only infrequently impacts peptide binding to HLA class II MHC” (PLoS ONE, 2017).
# Where two headings read alike, the source gives them in different places. Square brackets hold non-standard residues; d marks the D form. Peptide text beside a SMILES is read from it. Cit = NC(=O)NCCC[C@H](N)C(=O)O
# Experiments:
# HLA-DRB1*01:01 = target: T1, HLA-DRB1*01:01 (Homo sapiens, UniProt P01903+P01911, A100R/D57E/F55L/F60I/F76Y/I96L/L162R/M171V/P40L/Q125E/R42F/V115G/Y59C); test: HLA class II peptide binding, inhibition of radiolabeled peptide binding to purified MHC; conditions: for IC50: read-out: DRB1*01:01 binding capacity, Cit peptide (IC50 nM); for DRB1*01:01 binding capacity, WT/cit ratio: ratio of WT IC50 to Cit IC50
# T1 construct: EBV transformed homozygous cell lines were used as sources of MHC molecules; endogenous in cells; host or cells: EBV transformed homozygous cell lines
# HLA-DRB1*04:01 = target: T2, HLA-DRB1*04:01 (Homo sapiens, UniProt P01903+P01911, A100K/A169T/F76Y/I96L/K127E/L162R/M171V/N62H/P40V/Q125Y/R42H/S133A/S149N/S66Y/V115G/V209L/W38E); test: as above; conditions: for IC50: read-out: DRB1*04:01 binding capacity, Cit peptide (IC50 nM); for DRB1*04:01 binding capacity, WT/cit ratio: ratio of WT IC50 to Cit IC50
# T2 construct: EBV transformed homozygous cell lines were used as sources of MHC molecules; endogenous in cells; host or cells: EBV transformed homozygous cell lines
# [1] = citrullinated 15-mer peptide (X = citrulline), purified HLA-DRB1*01:01
# [2] = citrullinated 15-mer peptide (X = citrulline), purified HLA-DRB1*04:01
# [3] = >1 = citrullination increases binding
# [4] = citrullinated 15-mer peptide (X = citrulline), […]
# [5] = citrullinated 15-mer (X), purified MHC, inhibition of radiolabeled peptide binding, dash = IC50 >40,000 nM
smiles,measurement,setting,value
CC[C@H](C)[C@H](NC(=O)CNC(=O)[C@@H]1CCCN1)C(=O)N[C@@H](CC(=O)O)C(=O)N[C@@H](CCSC)C(=O)N[C@@H](CO)C(=O)N[C@@H](C)C(=O)N[C@@H](Cc1ccccc1)C(=O)N[C@@H](C)C(=O)NCC(=O)N[C@@H](CC(C)C)C(=O)NCC(=O)N1CCC[C@H]1C(=O)N[C@@H](CCCNC(N)=O)C(=O)N[C@@H](CCC(=O)O)C(=O)O [PGIDMSAFAGLGPXE] (H-PGIDMSAFAGLGP[Cit]E-OH),IC50,HLA-DRB1*01:01; [1],122 nM
same,IC50,HLA-DRB1*04:01; [2],12900 nM
CC[C@H](C)[C@H](NC(=O)CNC(=O)[C@H](C)NC(=O)[C@H](C)NC(=O)CNC(=O)[C@H](CCCNC(N)=O)NC(=O)[C@H](CCC(=O)O)NC(=O)CNC(=O)[C@@H]1CCCN1C(=O)[C@H](CCSC)NC(=O)CNC(=O)[C@H](CCC(N)=O)NC(=O)[C@H](CC(C)C)NC(=O)CNC(=O)[C@@H]1CCCN1)C(=O)O [PGLQGMPGEXGAAGI] (H-PGLQGMPGE[Cit]GAAGI-OH),IC50,HLA-DRB1*01:01; [1],55 nM
same,IC50,HLA-DRB1*04:01; [2],4170 nM
CC(C)C[C@H](NC(=O)CNC(=O)[C@@H]1CCCN1)C(=O)N[C@@H](CCCNC(N)=O)C(=O)NCC(=O)N[C@@H](CC(C)C)C(=O)N1CCC[C@H]1C(=O)NCC(=O)N[C@@H](CCCCN)C(=O)N[C@@H](CC(=O)O)C(=O)NCC(=O)N[C@@H](CCC(=O)O)C(=O)N[C@H](C(=O)NCC(=O)N[C@@H](C)C(=O)O)[C@@H](C)O [PGLXGLPGKDGETGA] (H-PGL[Cit]GLPGKDGETGA-OH),IC50,HLA-DRB1*01:01; [1],109 nM
same,IC50,HLA-DRB1*04:01; [2],> 40000 nM
C[C@H](NC(=O)[C@@H]1CCCN1C(=O)CNC(=O)[C@@H]1CCCN1)C(=O)NCC(=O)N1CCC[C@H]1C(=O)N[C@H](C(=O)NCC(=O)N[C@@H](CCCCN)C(=O)N[C@@H](CCC(N)=O)C(=O)NCC(=O)N[C@@H](CC(=O)O)C(=O)N[C@@H](CCCNC(N)=O)C(=O)NCC(=O)N[C@@H](CCC(=O)O)C(=O)O)[C@@H](C)O [PGPAGPTGKQGDXGE] (H-PGPAGPTGKQGD[Cit]GE-OH; N-terminus and C-terminus assumed),IC50,HLA-DRB1*01:01; [1],> 40000 nM
same,"DRB1*01:01 binding capacity, WT/cit ratio",HLA-DRB1*01:01; [3],1.0
same,IC50,HLA-DRB1*04:01; [2],> 40000 nM
same,"DRB1*04:01 binding capacity, WT/cit ratio",HLA-DRB1*04:01; [3],1.0
CC[C@H](C)[C@H](NC(=O)CNC(=O)[C@H](CCCNC(N)=O)NC(=O)[C@H](CCC(N)=O)NC(=O)CNC(=O)[C@H](C)NC(=O)[C@H](CC(C)C)NC(=O)CNC(=O)[C@H](CCC(N)=O)NC(=O)[C@@H]1CCCN1C(=O)CNC(=O)[C@@H]1CCCN1)C(=O)N[C@H](C(=O)NCC(=O)N[C@@H](CC(C)C)C(=O)O)C(C)C [PGPQGLAGQXGIVGL],IC50,HLA-DRB1*01:01; [1],7.1 nM
same,IC50,HLA-DRB1*04:01; [2],7920 nM
CC(C)C[C@H](NC(=O)CNC(=O)[C@@H]1CCCN1C(=O)[C@H](Cc1ccccc1)NC(=O)CNC(=O)[C@H](CCCNC(N)=O)NC(=O)[C@H](CCC(=O)O)NC(=O)CNC(=O)[C@H](CCCNC(=N)N)NC(=O)[C@H](CCC(N)=O)NC(=O)CNC(=O)[C@@H]1CCCN1)C(=O)N1CCC[C@H]1C(=O)NCC(=O)N1CCC[C@H]1C(=O)O [PGQRGEXGFPGLPGP] (H-PGQRGE[Cit]GFPGLPGP-OH),IC50,HLA-DRB1*01:01; [1],10500 nM
same,IC50,HLA-DRB1*04:01; [2],> 40000 nM
CC(C)C[C@H](NC(=O)CNC(=O)[C@@H]1CCCN1C(=O)[C@H](Cc1ccccc1)NC(=O)CNC(=O)[C@H](CCCNC(=N)N)NC(=O)[C@H](CCC(=O)O)NC(=O)CNC(=O)[C@H](CCCNC(N)=O)NC(=O)[C@H](CCC(N)=O)NC(=O)CNC(=O)[C@@H]1CCCN1)C(=O)N1CCC[C@H]1C(=O)NCC(=O)N1CCC[C@H]1C(=O)O [PGQXGERGFPGLPGP] (H-PGQ[Cit]GERGFPGLPGP-OH),IC50,HLA-DRB1*01:01; [1],6470 nM
same,IC50,HLA-DRB1*04:01; [2],> 40000 nM
CC(C)C[C@H](NC(=O)[C@H](CO)NC(=O)[C@H](CO)NC(=O)[C@H](Cc1ccccc1)NC(=O)[C@H](CC(N)=O)NC(=O)[C@@H]1CCCN1)C(=O)N[C@@H](CC(N)=O)C(=O)N[C@@H](CC(C)C)C(=O)N[C@@H](CCCNC(N)=O)C(=O)N[C@@H](CCC(=O)O)C(=O)N[C@H](C(=O)N[C@@H](CC(N)=O)C(=O)N[C@@H](CC(C)C)C(=O)N[C@@H](CC(=O)O)C(=O)N[C@@H](CO)C(=O)O)[C@@H](C)O [PNFSSLNLXETNLDS] (H-PNFSSLNL[Cit]ETNLDS-OH),IC50,HLA-DRB1*01:01; [1],448 nM
same,IC50,HLA-DRB1*04:01; [2],1950 nM
C[C@H](NC(=O)[C@@H]1CCCN1C(=O)CNC(=O)[C@H](CCC(N)=O)NC(=O)[C@@H]1CCCN1C(=O)CNC(=O)[C@@H]1CCCN1C(=O)[C@@H]1CCCN1)C(=O)NCC(=O)N[C@@H](CCC(=O)O)C(=O)N[C@@H](CCC(N)=O)C(=O)NCC(=O)N1CCC[C@H]1C(=O)N[C@@H](CCCNC(N)=O)C(=O)NCC(=O)O [PPGPQGPAGEQGPXG] (H-PPGPQGPAGEQGP[Cit]G-OH),IC50,HLA-DRB1*01:01; [4],35600 nM
same,IC50,HLA-DRB1*04:01; [4],> 40000 nM
CC(C)C[C@H](NC(=O)[C@H](CO)NC(=O)[C@H](CCCNC(N)=O)NC(=O)[C@H](CO)NC(=O)[C@@H](NC(=O)[C@H](CO)NC(=O)[C@@H]1CCCN1)[C@@H](C)O)C(=O)N[C@@H](Cc1ccc(O)cc1)C(=O)N[C@@H](C)C(=O)N[C@@H](CO)C(=O)N[C@@H](CO)C(=O)N1CCC[C@H]1C(=O)NCC(=O)NCC(=O)N[C@H](C(=O)O)C(C)C [PSTSXSLYASSPGGV],IC50,HLA-DRB1*01:01; [5],524 nM
same,IC50,HLA-DRB1*04:01; [5],2520 nM
C[C@H](NC(=O)CNC(=O)[C@H](C)NC(=O)[C@H](CCC(=O)O)NC(=O)CNC(=O)[C@H](CCCNC(N)=O)NC(=O)[C@H](CC(=O)O)NC(=O)CNC(=O)[C@H](CCC(N)=O)NC(=O)[C@H](CCCCN)NC(=O)CNC(=O)[C@@H](NC(=O)[C@@H]1CCCN1)[C@@H](C)O)C(=O)N[C@@H](CCC(N)=O)C(=O)NCC(=O)O [PTGKQGDXGEAGAQG] (H-PTGKQGD[Cit]GEAGAQG-OH; N-terminus and C-terminus assumed),IC50,HLA-DRB1*01:01; [1],> 40000 nM
same,"DRB1*01:01 binding capacity, WT/cit ratio",HLA-DRB1*01:01; [3],0.6
same,IC50,HLA-DRB1*04:01; [2],> 40000 nM
same,"DRB1*04:01 binding capacity, WT/cit ratio",HLA-DRB1*04:01; [3],1.0
CC(C)[C@H](NC(=O)[C@H](CCC(N)=O)NC(=O)[C@H](CCCNC(N)=O)NC(=O)[C@H](CCCNC(=N)N)NC(=O)[C@H](Cc1ccc(O)cc1)NC(=O)[C@H](CCC(=O)O)NC(=O)[C@@H](NC(=O)[C@H](CO)NC(=O)[C@H](CCC(=O)O)NC(=O)[C@H](CCC(N)=O)NC(=O)[C@H](CCCCN)NC(=O)[C@H](C)NC(=O)[C@@H](N)CCC(N)=O)[C@@H](C)O)C(=O)N[C@@H](CCC(N)=O)C(=O)N[C@@H](CO)C(=O)O [QAKQESTEYRXQVQS] (H-QAKQESTEYR[Cit]QVQS-OH),IC50,HLA-DRB1*01:01; [1],1740 nM
same,IC50,HLA-DRB1*04:01; [2],7440 nM
CC(C)[C@H](NC(=O)[C@H](CCC(N)=O)NC(=O)[C@H](CCCNC(=N)N)NC(=O)[C@H](CCCNC(N)=O)NC(=O)[C@H](Cc1ccc(O)cc1)NC(=O)[C@H](CCC(=O)O)NC(=O)[C@@H](NC(=O)[C@H](CO)NC(=O)[C@H](CCC(=O)O)NC(=O)[C@H](CCC(N)=O)NC(=O)[C@H](CCCCN)NC(=O)[C@H](C)NC(=O)[C@@H](N)CCC(N)=O)[C@@H](C)O)C(=O)N[C@@H](CCC(N)=O)C(=O)N[C@@H](CO)C(=O)O [QAKQESTEYXRQVQS] (H-QAKQESTEY[Cit]RQVQS-OH),IC50,HLA-DRB1*01:01; [1],9030 nM
same,IC50,HLA-DRB1*04:01; [2],> 40000 nM
CC[C@H](C)[C@H](NC(=O)[C@H](CCC(=O)O)NC(=O)[C@H](CC(=O)O)NC(=O)[C@@H](N)CCC(N)=O)C(=O)N[C@@H](CCC(N)=O)C(=O)N[C@@H](CC(N)=O)C(=O)N[C@@H](CCSC)C(=O)N[C@@H](CCCCN)C(=O)N[C@@H](CCC(=O)O)C(=O)N[C@@H](CCC(=O)O)C(=O)N[C@@H](CCSC)C(=O)N[C@@H](C)C(=O)N[C@@H](CCCNC(N)=O)C(=O)N[C@@H](Cc1c[nH]cn1)C(=O)N[C@@H](CC(C)C)C(=O)O [QDEIQNMKEEMAXHL],IC50,HLA-DRB1*01:01; [1],5890 nM
same,IC50,HLA-DRB1*04:01; [2],3940 nM
CC(C)[C@H](NC(=O)[C@H](CC(=O)O)NC(=O)[C@H](CCCCN)NC(=O)[C@H](CC(=O)O)NC(=O)[C@H](CC(N)=O)NC(=O)[C@H](Cc1ccc(O)cc1)NC(=O)[C@H](CCCNC(N)=O)NC(=O)[C@H](CCC(N)=O)NC(=O)CNC(=O)[C@H](CC(=O)O)NC(=O)[C@@H](N)CCC(N)=O)C(=O)N[C@@H](Cc1c[nH]c2ccccc12)C(=O)N[C@@H](CCCCN)C(=O)N1CCC[C@H]1C(=O)N[C@@H](CCC(=O)O)C(=O)O [QDGQXYNDKDVWKPE] (H-QDGQ[Cit]YNDKDVWKPE-OH; N-terminus and C-terminus assumed),IC50,HLA-DRB1*01:01; [1],> 40000 nM
same,"DRB1*01:01 binding capacity, WT/cit ratio",HLA-DRB1*01:01; [3],1.0
same,IC50,HLA-DRB1*04:01; [2],> 40000 nM
same,"DRB1*04:01 binding capacity, WT/cit ratio",HLA-DRB1*04:01; [3],1.0
CSCC[C@H](NC(=O)[C@H](CCC(=O)O)NC(=O)[C@H](CCC(=O)O)NC(=O)[C@H](CCC(=O)O)NC(=O)[C@H](Cc1ccc(O)cc1)NC(=O)[C@H](CC(C)C)NC(=O)[C@H](CC(=O)O)NC(=O)CNC(=O)[C@H](CC(C)C)NC(=O)[C@H](CCCNC(=N)N)NC(=O)[C@H](CO)NC(=O)[C@H](CCCCN)NC(=O)CNC(=O)[C@@H](N)CCC(N)=O)C(=O)N[C@@H](CCCNC(N)=O)C(=O)O [QGKSRLGDLYEEEMX] (H-QGKSRLGDLYEEEM[Cit]-OH; N-terminus and C-terminus assumed),IC50,HLA-DRB1*01:01; [5],> 40000 nM
same,"DRB1*01:01 binding capacity, WT/cit ratio",HLA-DRB1*01:01,0.7
same,IC50,HLA-DRB1*04:01; [5],> 40000 nM
same,"DRB1*04:01 binding capacity, WT/cit ratio",HLA-DRB1*04:01,1.0
